{
  "source": "patent US10434079B2",
  "about": "“Compositions and methods for the treatment of fatty acid metabolism disorders” (The Children's Hospital of Philadelphia, priority 2013, dated 2019)",
  "key": {"[1]": {"tested_on": "β-oxidation of fatty acids", "assay": "Measurement of β-oxidation: 3H-labeled palmitoyl-CoA oxidation in liver homogenates of treated ob/ob mice", "assay_type": "in vivo, mouse", "details": "GSNO-injected ob/ob mice (i.p.)", "experimental": "(1957) J. Biol. Chem., 226:497-509). The aqueous phase was collected, and proteins were precipitated by the addition of 10% TCA followed by centrifugation at 8000 g for 10 minutes at room temperature. Remaining radioactive palmitoyl-CoA was eliminated by strong anion exchange chromatography with AG 1-X8 formate resin (Life Science). The effluent containing the ^3H2O was collected and used for scintillation counting. Each experiment was coupled with a background measurement, a sample containing no protein. The background count number was subtracted from each measurement corresponding to analysis samples. Leptin-deficient mice develop liver steatosis spontaneously under normal chow diet starting at 4 to 5 weeks of life that is characterized by a diminished rate of palmitate oxidation and accumulation of fat droplets in the form of triglycerides within the hepatocytes (Brix et al. (2002) Mol. Genet. Metab., 75:219-226; de Oliveira et al. (2008) J. Am. Coll. Nutr., 27:299-305). […] This significant reduction in the rate of palmitoyl-CoA oxidation indicated a deficiency in mitochondrial β-oxidation of fatty acids. […]"}, "C238A VLCAD": {"target": "T1, C238A VLCAD (Mus musculus, UniProt P50544, C238A)", "T1 construct": "3xFLAG (C); host or cells: Hepa 1 to 6 cells", "T1 sequence (P50544 42-656 C238A)": "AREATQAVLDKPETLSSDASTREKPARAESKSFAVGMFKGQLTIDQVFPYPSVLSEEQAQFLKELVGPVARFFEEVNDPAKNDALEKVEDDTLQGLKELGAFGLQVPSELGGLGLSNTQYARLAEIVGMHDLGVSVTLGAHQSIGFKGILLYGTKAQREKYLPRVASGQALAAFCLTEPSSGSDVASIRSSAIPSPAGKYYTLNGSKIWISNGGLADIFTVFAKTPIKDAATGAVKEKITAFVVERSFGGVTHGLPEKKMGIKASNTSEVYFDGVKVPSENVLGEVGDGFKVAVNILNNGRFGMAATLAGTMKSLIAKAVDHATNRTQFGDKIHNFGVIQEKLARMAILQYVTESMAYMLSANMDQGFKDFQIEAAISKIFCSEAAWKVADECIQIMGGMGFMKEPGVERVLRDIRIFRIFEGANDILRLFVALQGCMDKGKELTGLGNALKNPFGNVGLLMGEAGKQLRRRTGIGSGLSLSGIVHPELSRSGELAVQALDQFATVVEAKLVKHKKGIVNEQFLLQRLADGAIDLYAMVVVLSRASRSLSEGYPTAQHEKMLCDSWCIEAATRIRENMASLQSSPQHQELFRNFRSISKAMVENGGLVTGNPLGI", "assay": "Hepa 1 to 6 cells expressing FLAG-tagged C238A VLCAD exposed to GSNO", "assay_type": "cell-based", "details": "same GSNO treatment", "experimental": "Liver homogenate (final concentration of 0.03 μg/μl) or cell lysate (final concentration of 0.09 μg/μl) in 100 mM potassium phosphate buffer (pH 7.2) containing 0.2% Triton X-100 and 0.1 mM EDTA was mixed with […] ferricenium ion, and the reaction was initiated by the addition of palmitoyl-CoA (the final volume of the assay was 130 μl). […] At least nine concentrations of palmitoyl-CoA, ranging from 0.015 to 2 mM, were used for the experimental determination of the apparent Vmax and KM of VLCAD for each animal. […] A unit of enzyme activity is defined as the amount of enzyme that causes the reduction of […] of ferricenium per minute at room temperature (ε=4.3 mM^−1 cm^−1 at 300 nm) (Izai et al. (1992) J. Biol. Chem., 267:1027-1033). […] The measurement of specific activity of VLCAD in liver homogenates (FIG. 2H) and cell lysates (FIG. 4) was performed in the presence of 0.25 and 0.125 mM palmitoyl-CoA, respectively.\nThe QuikChange® Lightning Site-Directed Mutagenesis Kit (Agilent Technologies) was used to introduce single amino acid mutations in complementary DNA encoding VLCAD. A cysteine-to-alanine mutant at amino acid position 238 was generated with Ex-Mm01013-M14 (hereinafter referred to as pVLCAD-3×FLAG®), a plasmid encoding mouse VLCAD fused to three FLAG® tags in the C-terminal region of the protein (GeneCopoeia), as a template. […]"}},
  "data": [
    {"smiles": "N[C@@H](CCC(=O)N[C@@H](CSN=O)C(=O)NCC(=O)O)C(=O)O", "note": "[GSNO, S-nitrosoglutathione]", "values": [
      {"measurement": "palmitoyl-CoA oxidation rate compared with PBS-injected ob/ob mice", "setting": "[1]", "value": "significantly increased rate"},
      {"measurement": "basal activity of C238A VLCAD mutant in response to GSNO", "setting": "C238A VLCAD", "value": "did not change"}
    ]}
  ]
}
